Measurements as given in PubChem BioAssay AID252 (DTP/NCI, 2004).
Values joined by “and” are separate entries in the source; they are usually repeats but may differ in a detail not shown here. Equal values may be shown once. Inconclusive results and toxic doses are left out.

System: BDF1 mice, intracerebral L1210 leukemia, survival T/C
Test: NCI In Vivo Anticancer Drug Screen. Data for tumor model L1210 Leukemia (intracerebral) in B6D2F1 (BDF1) mice
Conditions: higher = longer survival
Method in brief: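 Transplantable tumour-bearing mice, compound-treated vs vehicle controls; read-out survival, reported as T/C ratio.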

[1] = endpoint: mean survival time, dose: 1.0 mg/kg/injection, schedule: Q01DX009 (ip), vehicle: saline
[2] = endpoint: mean survival time, dose: 2.0 mg/kg/injection, schedule: Q01DX009 (ip), vehicle: saline

COc1cccc2c1C(=O)c1c(O)c3c(c(O)c1C2=O)C[C@@](O)(C(C)=O)C[C@@H]3OC1CC(N)C(O)C(C)O1 (stereo not given in full)
T/C (endpoint: mean survival time, dose: 1.08 mg/kg/injection, schedule: Q04DX003 (ip), vehicle: water): 101 % of control
T/C (endpoint: mean survival time, dose: 1.8 mg/kg/injection, schedule: Q04DX003 (ip), vehicle: water): 101 % of control
T/C (endpoint: mean survival time, dose: 3.0 mg/kg/injection, schedule: Q04DX003 (ip), vehicle: water): 97 % of control
T/C (endpoint: mean survival time, dose: 3.12 mg/kg/injection, schedule: Q01DX001 (ip), vehicle: water): 102 % of control
T/C (endpoint: mean survival time, dose: 5.0 mg/kg/injection, schedule: Q04DX003 (ip), vehicle: water): 102 % of control
T/C (endpoint: mean survival time, dose: 6.25 mg/kg/injection, schedule: Q01DX001 (ip), vehicle: water): 97 % of control
T/C (endpoint: mean survival time, dose: 12.5 mg/kg/injection, schedule: Q01DX001 (ip), vehicle: water): 91 % of control
T/C (endpoint: mean survival time, dose: 25.0 mg/kg/injection, schedule: Q01DX001 (ip), vehicle: water): 96 % of control
T/C (endpoint: median survival time, dose: 1.08 mg/kg/injection, schedule: Q04DX003 (ip), vehicle: water): 97 % of control
T/C (endpoint: median survival time, dose: 1.8 mg/kg/injection, schedule: Q04DX003 (ip), vehicle: water): 96 % of control
T/C (endpoint: median survival time, dose: 3.0 mg/kg/injection, schedule: Q04DX003 (ip), vehicle: water): 96 % of control
T/C (endpoint: median survival time, dose: 5.0 mg/kg/injection, schedule: Q04DX003 (ip), vehicle: water): 96 % of control
T/C (endpoint: median survival time, dose: 8.4 mg/kg/injection, schedule: Q04DX003 (ip), vehicle: water): 95 % of control

O=NN(CCCl)C(=O)N[C@H]1CCC[C@@H](O)C1
T/C (endpoint: mean survival time, dose: 12.0 mg/kg/injection, schedule: Q01DX001 (ip), vehicle: saline with Tween-80): 124 % of control
T/C (endpoint: mean survival time, dose: 18.0 mg/kg/injection, schedule: Q01DX001 (ip), vehicle: saline with Tween-80): 164 % of control
T/C (endpoint: mean survival time, dose: 26.0 mg/kg/injection, schedule: Q01DX001 (ip), vehicle: saline with Tween-80): 420 % of control
T/C (endpoint: mean survival time, dose: 40.0 mg/kg/injection, schedule: Q01DX001 (ip), vehicle: saline with Tween-80): 452 % of control
T/C (endpoint: mean survival time, dose: 60.0 mg/kg/injection, schedule: Q01DX001 (ip), vehicle: saline with Tween-80): 303 % of control
T/C (endpoint: mean survival time, dose: 90.0 mg/kg/injection, schedule: Q01DX001 (ip), vehicle: saline with Tween-80): 90 % of control

CS(=O)(=O)Nc1ccc(Nc2c3ccccc3nc3cc(N)ccc23)cc1
T/C [1]: 120 % of control
T/C (endpoint: mean survival time, dose: 1.0 mg/kg/injection, schedule: Q01DX009 (sc), vehicle: saline): 96 % of control
T/C [2]: 98 % of control
T/C (endpoint: mean survival time, dose: 2.0 mg/kg/injection, schedule: Q01DX009 (sc), vehicle: saline): 103 % of control
T/C (endpoint: mean survival time, dose: 4.0 mg/kg/injection, schedule: Q01DX009 (sc), vehicle: saline): 104 % of control

OCCOCCN1CCN(CCCN2c3ccccc3Sc3ccc(C(F)(F)F)cc32)CC1
T/C (endpoint: mean survival time, dose: 18.7 mg/kg/injection, schedule: Q04DX003 (ip), vehicle: saline): 106 % of control
T/C (endpoint: mean survival time, dose: 37.5 mg/kg/injection, schedule: Q04DX003 (ip), vehicle: saline): 106 % of control
T/C (endpoint: mean survival time, dose: 75.0 mg/kg/injection, schedule: Q04DX003 (ip), vehicle: saline): 106 % of control

O=c1[nH]c(=O)n([C@H]2CCCO2)cc1F
T/C (endpoint: median survival time, dose: 23.0 mg/kg/injection, schedule: Q01DX009 (ip), vehicle: water): 95 % of control
T/C (endpoint: median survival time, dose: 39.0 mg/kg/injection, schedule: Q01DX009 (ip), vehicle: water): 107 % of control
T/C (endpoint: median survival time, dose: 65.0 mg/kg/injection, schedule: Q01DX009 (ip), vehicle: water): 101 % of control
T/C (endpoint: median survival time, dose: 65.0 mg/kg/injection, schedule: Q04DX003 (ip), vehicle: water): 97 % of control
T/C (endpoint: median survival time, dose: 108.0 mg/kg/injection, schedule: Q04DX003 (ip), vehicle: water): 99 % of control
T/C (endpoint: median survival time, dose: 180.0 mg/kg/injection, schedule: Q01DX009 (ip), vehicle: water): 97 % of control
T/C (endpoint: median survival time, dose: 180.0 mg/kg/injection, schedule: Q04DX003 (ip), vehicle: water): 111 % of control

O=NN(CCCl)C(=O)Nc1cccc(Cl)c1
T/C (endpoint: mean survival time, dose: 44.0 mg/kg/injection, schedule: Q01DX001 (ip), vehicle: carboxymethylcellulose (CMC)): 102 % of control
T/C (endpoint: mean survival time, dose: 67.0 mg/kg/injection, schedule: Q01DX001 (ip), vehicle: carboxymethylcellulose (CMC)): 100 % of control
T/C (endpoint: mean survival time, dose: 77.0 mg/kg/injection, schedule: Q01DX001 (ip), vehicle: carboxymethylcellulose (CMC)): 107 % of control
T/C (endpoint: mean survival time, dose: 100.0 mg/kg/injection, schedule: Q01DX001 (ip), vehicle: carboxymethylcellulose (CMC)): 98 % of control
T/C (endpoint: mean survival time, dose: 117.0 mg/kg/injection, schedule: Q01DX001 (ip), vehicle: carboxymethylcellulose (CMC)): 103 % of control
T/C (endpoint: mean survival time, dose: 175.0 mg/kg/injection, schedule: Q01DX001 (ip), vehicle: carboxymethylcellulose (CMC)): 108 % of control
T/C (endpoint: mean survival time, dose: 252.0 mg/kg/injection, schedule: Q01DX001 (ip), vehicle: carboxymethylcellulose (CMC)): 103 % of control

C[C@@H]1CN1C1=CC(=O)C(N2C[C@H]2C)=CC1=O
T/C (endpoint: mean survival time, dose: 8.0 mg/kg/injection, schedule: Q01DX009 (ip), vehicle: Klucel (hydroxypropylcellulose) (HPC)): 95 % of control

N=c1nc2n(cc1F)[C@@H]1O[C@H](CO)[C@@H](O)[C@@H]1O2
T/C (endpoint: median survival time, dose: 100.0 mg/kg/injection, schedule: Q01DX009 (ip), vehicle: saline): 186 % of control
T/C (endpoint: median survival time, dose: 200.0 mg/kg/injection, schedule: Q01DX009 (ip), vehicle: saline): 204 % of control
T/C (endpoint: median survival time, dose: 400.0 mg/kg/injection, schedule: Q01DX009 (ip), vehicle: saline): 344 % of control

CC[C@H]1CN2CCc3cc(OC)c(OC)cc3[C@@H]2C[C@@H]1C[C@H]1NCCc2cc(OC)c(OC)cc21
T/C (endpoint: mean survival time, dose: 1.0 mg/kg/injection, schedule: Q01DX005 (ip), vehicle: saline): 101 % of control
T/C [1]: 100 % of control
T/C (endpoint: mean survival time, dose: 2.0 mg/kg/injection, schedule: Q01DX005 (ip), vehicle: saline): 100 % of control
T/C [2]: 98 % of control
T/C (endpoint: mean survival time, dose: 2.0 mg/kg/injection, schedule: Q04DX003 (ip), vehicle: saline): 101 % of control
T/C (endpoint: mean survival time, dose: 4.0 mg/kg/injection, schedule: Q01DX005 (ip), vehicle: saline): 98 % of control
T/C (endpoint: mean survival time, dose: 4.0 mg/kg/injection, schedule: Q01DX009 (ip), vehicle: saline): 101 % of control
T/C (endpoint: mean survival time, dose: 4.0 mg/kg/injection, schedule: Q04DX003 (ip), vehicle: saline): 101 % of control
T/C (endpoint: mean survival time, dose: 4.0 mg/kg/injection, schedule: Q08DX002 (ip), vehicle: saline): 100 % of control
T/C (endpoint: mean survival time, dose: 8.0 mg/kg/injection, schedule: Q01DX005 (ip), vehicle: saline): 98 % of control
T/C (endpoint: mean survival time, dose: 8.0 mg/kg/injection, schedule: Q01DX009 (ip), vehicle: saline): 100 % of control
T/C (endpoint: mean survival time, dose: 8.0 mg/kg/injection, schedule: Q04DX003 (ip), vehicle: saline): 96 % of control
T/C (endpoint: mean survival time, dose: 8.0 mg/kg/injection, schedule: Q08DX002 (ip), vehicle: saline): 97 % of control
T/C (endpoint: mean survival time, dose: 16.0 mg/kg/injection, schedule: Q01DX005 (ip), vehicle: saline): 87 % of control
T/C (endpoint: mean survival time, dose: 16.0 mg/kg/injection, schedule: Q04DX003 (ip), vehicle: saline): 104 % of control
T/C (endpoint: mean survival time, dose: 16.0 mg/kg/injection, schedule: Q08DX002 (ip), vehicle: saline): 100 % of control
T/C (endpoint: mean survival time, dose: 32.0 mg/kg/injection, schedule: Q04DX003 (ip), vehicle: saline): 106 % of control
T/C (endpoint: mean survival time, dose: 32.0 mg/kg/injection, schedule: Q08DX002 (ip), vehicle: saline): 112 % of control

O=NN(CCCl)C(=O)NC1CCC(=O)NC1=O (stereo not given)
T/C (endpoint: mean survival time, dose: 2.1 mg/kg/injection, schedule: Q01DX001 (ip), vehicle: other): 106 % of control and 116 % of control
T/C (endpoint: mean survival time, dose: 4.0 mg/kg/injection, schedule: Q01DX001 (ip), vehicle: other): 156 % of control and 226 % of control
T/C (endpoint: mean survival time, dose: 8.0 mg/kg/injection, schedule: Q01DX001 (ip), vehicle: other): 159 % of control and 161 % of control and 183 % of control
T/C (endpoint: mean survival time, dose: 8.0 mg/kg/injection, schedule: Q01DX001 (ip), vehicle: saline with Tween-80): 352 % of control
T/C (endpoint: mean survival time, dose: 11.0 mg/kg/injection, schedule: Q01DX001 (ip), vehicle: other): 251 % of control
T/C (endpoint: mean survival time, dose: 12.0 mg/kg/injection, schedule: Q01DX001 (ip), vehicle: other): 298 % of control and 327 % of control
T/C (endpoint: mean survival time, dose: 13.0 mg/kg/injection, schedule: Q01DX001 (ip), vehicle: saline with Tween-80): 542 % of control
T/C (endpoint: mean survival time, dose: 16.0 mg/kg/injection, schedule: Q01DX001 (ip), vehicle: other): 274 % of control and 328 % of control
T/C (endpoint: mean survival time, dose: 17.0 mg/kg/injection, schedule: Q01DX001 (ip), vehicle: other): 389 % of control and 498 % of control
T/C (endpoint: mean survival time, dose: 20.0 mg/kg/injection, schedule: Q01DX001 (ip), vehicle: saline with Tween-80): 625 % of control
T/C (endpoint: mean survival time, dose: 22.0 mg/kg/injection, schedule: Q01DX001 (ip), vehicle: other): 251 % of control
T/C (endpoint: mean survival time, dose: 24.0 mg/kg/injection, schedule: Q01DX001 (ip), vehicle: other): 238 % of control and 335 % of control
T/C (endpoint: mean survival time, dose: 30.0 mg/kg/injection, schedule: Q01DX001 (ip), vehicle: saline with Tween-80): 107 % of control
T/C (endpoint: mean survival time, dose: 33.0 mg/kg/injection, schedule: Q01DX001 (ip), vehicle: other): 297 % of control
T/C (endpoint: mean survival time, dose: 35.0 mg/kg/injection, schedule: Q01DX001 (ip), vehicle: other): 287 % of control and 353 % of control
T/C (endpoint: mean survival time, dose: 36.0 mg/kg/injection, schedule: Q01DX001 (ip), vehicle: other): 205 % of control
T/C (endpoint: mean survival time, dose: 44.0 mg/kg/injection, schedule: Q01DX001 (ip), vehicle: other): 275 % of control
